Legend:
[1] = test system: P. aeruginosa, WT, na1B and ΔABM; assay: Overnight culture, absorbance at 600 nm by UV-vis spectroscopy (MIC); type: cell-based, Pseudomonas aeruginosa; conditions: antibiotic concentration 3.13, 15.65 or 31.3 μg/mL, three strains
Protocol: After the overnight incubation, the absorbance of the […] an UV-vis spectrometer to determine the concentrations of bacterial cells based upon the light scattering of bacterial cells for the three strains of P. aeruginosa, WT, na1B and ΔABM. For each strain of P. aeruginosa cells and each concentration of the silver coated gold particles, the absorbances of 5 samples of the culture medium were measured with the absorbance of each sample measured 3 times and the average absorbance was calculated. The absorbance of ultra-pure water containing the corresponding concentration of silver coated gold particles was subtracted from the average absorbance and the resulting absorbance was plotted in FIG. 1 versus the concentrations of the silver coated gold particles used in the incubation. […] Thus, the MICs of the silver coated gold particles were determined to be about 20 pM for these three strains of P. aeruginosa.
With a UV-vis spectrometer, the absorbance of each sample of the culture medium was measured at 600 nm after the overnight incubation to determine the P. aeruginosa cell concentration based upon light scattering of cells. For each strain of P. aeruginosa cells, the absorbances of 4 samples of the P. aeruginosa culture medium containing azthreonam or gentamicin at a concentration of 0.313, 3.13, 15.65 or 31.3 μg/mL were measured. […]

[2] = test system: Pseudomonas aeruginosa cells (WT, na1B, ΔABM); assay: Overnight culture, visual inspection of turbidity (MIC); type: cell-based; conditions: visual inspection after overnight incubation
Text: Three strains of Pseudomonas aeruginosa cells (WT, na1B, ΔABM) were used in this working example. “WT” stands for wild type P. aeruginosa, PA04290. The symbol “AABM” stands for a mutant of wild type P. aeruginosa, PA04290, lacking MexA, MaxB and OprM, wherein MexA, MexB and OprM are component genes of an efflux system in wild type P. aeruginosa. The symbol “na1B” stands for a mutant of wild type P. aeruginosa, PA04290, having over expression of the MexA, MexB and OprM genes. These three strains were precultured in autoclaved test tubes overnight. Each test tube contained 3 mL of L-broth medium (1% tryptone, 0.5% yeast extract and 0.5% NaCl, pH 7.2) and was placed inside a shaker at 37° C. and 230 rpm. Then, 20 μL of this pre-cultured cell medium was transferred to each new test tube containing 2 mL of L-broth medium and 0, 2, 20, 40, 80, 100, 200 and 400 μL of a sterile liquid containing 300 pM silver enhanced gold particles (as the metallic nanoparticles used in this example) prepared as described in Example 1. […] Based on visual inspection of test tubes (the presence or absence of turbidity in the medium in each of the test tube) after the overnight incubation, it was determined that the bacterial cells grew at a concentration of the silver coated gold particles of less than 20 pM, but not at a concentration of 20 pM or more. […]

WT P. aeruginosa = conditions: published literature; cited from earlier work
[3] = test system: P. aeruginosa, WT, na1B and ΔABM; assay: Overnight culture, cell count by single-cell dark-field microscopy (MIC); type: cell-based, Pseudomonas aeruginosa; conditions: antibiotic concentration 3.13, 15.65 or 31.3 μg/mL
Text: Images were taken of the 5 samples using a dark-field microscope equipped with a Micromax CCD camera. For each of the three strains of P. aeruginosa, 5 samples of the […], 0.2, 2, 20 or 90 pM were examined using dark-field microscopy to count the number of P. aeruginosa cells present. For each sample, 5 pictures were taken at different locations to obtain representative numbers of P. aeruginosa cells present in each sample and the numbers of P. aeruginosa cells counted in the 5 pictures were summed to obtain the total number of P. aeruginosa cells in the 5 pictures. FIG. […] However, at a metallic nanoparticle concentration of 0, 0.2 or 2 pM, there were 200 or more P. aeruginosa cells in the 5 pictures of the culture medium. […] There were green, blue and red metallic nanoparticles, but the most abundant were green. The red nanoparticles appeared to be the brightest under the dark-field microscope because of the larger size.
After the overnight incubation described above, images were taken using a dark-field microscope equipped with a Micromax CCD camera. For each of the three strains of P. aeruginosa in the presence of azthreonam or gentamicin at a concentration of 0.313, 3.13, 15.65 or 31.3 μg/mL, 4 samples of the culture medium were subjected to single-cell dark-field microscopy. […]

Compound	absorbance at 600 nm [1]	minimum inhibitory concentrations (MICs) [2]	MIC (WT P. aeruginosa)	total number of P. aeruginosa cells present in the 5 pictures [3]
gentamicin	almost zero	about 3.13 μg/mL	about 3.13 μg/mL	almost zero
C[C@H]1[C@H](NC(=O)/C(=N\OC(C)(C)C(=O)O)c2csc(N)n2)C(=O)N1S(=O)(=O)O [azthreonam]	almost zero	about 3.13 μg/mL	about 3.13 μg/mL	almost zero

From US20030108612A1, “Metallic nanoparticles for inhibition of bacterium growth” (priority 2001, published 2003)
